Test results from US10973865B2, “Method of making solanaceae fruit extracts” (Provexis Natural Products Limited, priority 2008, dated 2021).
Converted amounts (≈) assume the structure as drawn.

Assays:
Type in all cases: cell-based, human
[1] = system: platelet aggregation induced by ADP in platelet-rich plasma; assay: Inhibition of ADP-induced platelet aggregation in platelet-rich plasma (aggregometer); settings: amount in mg inhibiting aggregation by 50% in 1 mL platelet-rich plasma, ADP 10 μmol/L, average of at least 3 IC50s; for IC50: Homo sapiens
Procedure: (§1) The experimental protocol described below was devised to determine the […] values of compounds isolated as described in 1.1.3. Crude bioassays to evaluate inhibition of platelet aggregation in vitro were performed on some crude extracts (data not shown) to help select fine fractions/compounds identified by HPLC for functional activity. This approach was considered necessary to avoid the need to assay each and ever compound (the would be thousands) in the fruit extracts.
(§2) An IC50 value represents the amount of a compound, in mg, required to inhibit by 50% the platelet aggregation induced under standardised conditions in 1 mL platelet-rich plasma, in comparison with control samples.
(§3) Blood for in vitro studies was collected from drug-free, healthy human volunteers, both male and female, aged 18-60 years, with normal platelet function. Subjects declared that they had not consumed drugs or supplements known to affect platelet function for a minimum of 10 days before providing a blood sample. Blood was collected after single venepuncture to an antecubital vein through siliconized needles into plastic citrated blood collection tubes (Sarstedt Monovettes, final concentration sodium citrate, 13 mmol/L). All blood was maintained at 37° C. from the time of blood sampling.
(§4) Platelet-rich plasma (PRP) was obtained by centrifugation of citrated blood for 15 minutes at 200×g, and was adjusted with platelet-poor plasma to a standard platelet number of 320±20×10^9/L prior to use. PRP was used for platelet function measurements within two hours.
(§5) The following agonists were used for platelet function measurements. Adenosine diphosphate (ADP), final concentration 10 μmol/L; collagen, final concentration 5 mg/L; arachidonic acid, final concentration 500 U/L (all from Helena Biosciences, Sunderland, UK); thrombin receptor-activating peptide (TRAP), final concentration 25 nmol/L (Sigma-Aldrich, Poole, UK). Agonists were prepared from stock solutions immediately before use, diluting into warmed physiological saline (0.9% NaCl).
(§6) Individual platelet inhibitors were prepared at a concentration of between 500 g/L and 100 g/L in either physiological saline, ultra-pure methanol or ultra-pure DMSO (Sigma-Aldrich, Poole, UK) and stored frozen until required. Stock solutions were then diluted with physiological saline immediately prior to use.
(§7) 450 μL PRP was incubated with 50 μL diluted inhibitor solution at 37° C. for 10 minutes, in low-retention epindorrfs. Inhibitor solutions were diluted such that the final concentration of methanol or DMSO in the PRP sample never exceeded 2%. Suitable control samples, containing 50 μL physiological saline matched for methanol or DMSO content as appropriate, were incubated simultaneously. For each inhibitor compound, 5 incubation concentrations were used; final concentrations of 0.05 mg/mL, 0.10 mg/mL, 1.00 mg/mL, 5.00 mg/mL and 10 mg/mL were used as standard.
(§8) After incubation with platelet inhibitors, PRP samples were transferred to glass cuvettes and the extent of aggregation induced by either ADP, collagen, TRAP or arachidonic acid was monitored over 10 minutes on a platelet aggregometer (PACKS 4, Helena Biosciences, Sunderland, UK). A control sample was run with each sample set. From the aggregation curves generated, the area under the curve was calculated for each PRP sample, and the inhibition of aggregation achieved at each inhibitor concentration was calculated by comparing the area under the curve for these PRP samples with that of the control sample. The inhibition of aggregation was expressed as % inhibition, compared to control, and from the 6 data points obtained per inhibitor compound, a dose-response curve was constructed. This curve was then used to predict the IC50 value for that inhibitor compound, as shown in 1.2, Results, and FIG. 1.
(§9) For each blood sample obtained, 6-point dose-response curves for 2 different inhibitory compounds could be generated. […]

[2] = system: platelet aggregation induced by thrombin receptor-activating peptide (TRAP) in platelet-rich plasma; assay: Inhibition of TRAP-induced platelet aggregation in platelet-rich plasma (aggregometer); settings: amount in mg inhibiting aggregation by 50% in 1 mL platelet-rich plasma, TRAP 25 nmol/L, average of at least 3 IC50s; for IC50: Homo sapiens
Procedure: as §1, §2, §3, §4, §5, §6, §7, §8, §9

[3] = system: platelet aggregation induced by collagen in platelet-rich plasma; assay: Inhibition of collagen-induced platelet aggregation in platelet-rich plasma (aggregometer); settings: amount in mg inhibiting aggregation by 50% in 1 mL platelet-rich plasma, collagen 5 mg/L, average of at least 3 IC50s; for IC50: Homo sapiens
Procedure: as §1, §2, §3, §4, §5, §6, §7, §8, §9

[4] = system: platelet aggregation induced by arachidonic acid in platelet-rich plasma; assay: Inhibition of arachidonic acid-induced platelet aggregation in platelet-rich plasma (aggregometer); settings: amount in mg inhibiting aggregation by 50% in 1 mL platelet-rich plasma, arachidonic acid 500 U/L, average of at least 3 IC50s; for IC50: Homo sapiens
Procedure: as §1, §2, §3, §4, §5, §6, §7, §8, §9

Row | Compound | IC50 ADP [1] | IC50 TRAP [2] | IC50 Collagen [3] | IC50 AA [4] | IC50 [2] | IC50 [4] | IC50 [1] | IC50 [3]
1 | O=C(/C=C/c1ccc(O)c(O)c1)O[C@@H]1C[C@](O)(C(=O)O)C[C@@H](O)[C@H]1O [Compound 14, Chlorogenic acid] | 10.08 mg | 1.1 mg | 10.11 mg | 0.77 mg | – | – | – | –
2 | O=c1c(O)c(-c2ccc(O)c(O)c2)oc2cc(O)cc(O)c12 [Compound 30, Quercetin] | – | – | – | – | 19.7 mg/mL (≈ 65 mM) | 3.66 mg/mL (≈ 12.1 mM) | – | –
3 | O=C(O)c1ccccc1 [Compound 20, Benzoic acid] | 25.11 mg | 18.19 mg | 17.74 mg | 15.45 mg | – | – | – | –
4 | Nc1ccn([C@@H]2O[C@H](CO)[C@@H](O)[C@H]2O)c(=O)n1 [Compound 1, Cytidine] | – | – | – | – | 39 mg/mL (≈ 160 mM) | 39 mg/mL (≈ 160 mM) | 2.42 mg/mL (≈ 9.95 mM) | 10.7 mg/mL (≈ 43.8 mM)
5 | Nc1nc2c(ncn2[C@@H]2O[C@H](CO)[C@@H](O)[C@H]2O)c(=O)[nH]1 [Compound 4, Guanosine] | – | – | – | – | 26.1 mg/mL (≈ 92 mM) | – | – | –
6 | O=C(O)/C=C/c1ccc(O)cc1 [Compound 19, p-coumaric acid] | – | – | – | – | 12.8 mg/mL (≈ 78.1 mM) | 10.2 mg/mL (≈ 62 mM) | 13.2 mg/mL (≈ 80.5 mM) | 14.6 mg/mL (≈ 89.1 mM)
7 | Adenosine 3′-monophospate [Compound 5] | 0.12 mg | 24.51 mg | 0.28 mg | 2.41 mg | – | – | – | –
8 | O=c1c(O)c(-c2ccc(O)cc2)oc2cc(O)cc(O)c12 [Compound 31, Kaempferol] | – | – | – | – | 26.2 mg/mL (≈ 91.5 mM) | 5.18 mg/mL (≈ 18.1 mM) | – | –

Second part, the compound after the results:

Row | IC50 ADP [1] | IC50 TRAP [2] | IC50 Collagen [3] | IC50 AA [4] | IC50 [2] | IC50 [4] | IC50 [1] | IC50 [3] | Compound
9 | – | – | – | – | 33.2 mg/mL (≈ 122 mM) | 10.4 mg/mL (≈ 38.2 mM) | – | – | O=C1C[C@@H](c2ccc(O)cc2)Oc2cc(O)cc(O)c21 [Compound 32, Naringenin]
10 | – | – | – | – | – | – | 6.51 mg/mL (≈ 26.7 mM) | 16 mg/mL (≈ 65.5 mM) | O=c1ccn([C@@H]2O[C@H](CO)[C@@H](O)[C@H]2O)c(=O)[nH]1 [Compound 3, Uridine]
11 | – | – | – | – | 8.96 mg/mL (≈ 14.7 mM) | – | 35.2 mg/mL (≈ 57.7 mM) | 32.2 mg/mL (≈ 52.7 mM) | C[C@@H]1O[C@@H](OC[C@H]2O[C@@H](Oc3c(-c4ccc(O)c(O)c4)oc4cc(O)cc(O)c4c3=O)[C@H](O)[C@@H](O)[C@@H]2O)[C@H](O)[C@H](O)[C@H]1O [Compound 27, Rutin]
12 | – | – | – | – | 14.7 mg/mL (≈ 75.4 mM) | 9.94 mg/mL (≈ 51.2 mM) | 18.7 mg/mL (≈ 96.1 mM) | 13.9 mg/mL (≈ 71.6 mM) | COc1cc(/C=C/C(=O)O)ccc1O [Compound 21, Ferulic acid]
13 | – | – | – | – | 8.03 mg/mL (≈ 44.6 mM) | 7.33 mg/mL (≈ 40.7 mM) | 19 mg/mL (≈ 105 mM) | 11.4 mg/mL (≈ 63.1 mM) | O=C(O)/C=C/c1ccc(O)c(O)c1 [Compound 18, Caffeic acid]
